Experimental data from US4839357A, “Renin inhibitors containing phenylalanyl-histidine replacements” (Merck & Co., Inc., priority 1987, dated 1989).
Square brackets hold non-standard residues; d marks the D form. Peptide text beside a SMILES is read from it. * marks the point of attachment. Sta = CC(C)C[C@H](N)[C@@H](O)CC(=O)O; Isovaleryl = CC(C)CC(=O)*

Experiments:
[1] = biological target: T1, renin (Homo sapiens, UniProt P00797); test: renin inhibition (IC50 printed in the synthesis text, no method described); type: biochemical
T1 sequence (P00797 67-406): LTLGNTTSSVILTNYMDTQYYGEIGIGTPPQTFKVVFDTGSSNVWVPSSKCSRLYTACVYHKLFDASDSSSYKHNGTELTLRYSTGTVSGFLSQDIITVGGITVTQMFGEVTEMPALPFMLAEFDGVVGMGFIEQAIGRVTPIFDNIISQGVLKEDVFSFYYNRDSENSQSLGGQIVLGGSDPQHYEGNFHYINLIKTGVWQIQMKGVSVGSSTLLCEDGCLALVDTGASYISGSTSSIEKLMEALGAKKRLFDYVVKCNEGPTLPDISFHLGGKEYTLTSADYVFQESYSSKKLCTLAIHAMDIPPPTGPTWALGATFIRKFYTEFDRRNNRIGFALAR

[2] = tested on: hog renin; conditions: after the injection of hog renin into nephrectomized rats; cited from earlier work

Structure (SMILES) | IC50 [1] [nM] | blood pressure in vivo [2]
CC(C)S(=O)(=O)C[C@@H](CCc1ccccc1)C(=O)N[C@@H](Cc1c[nH]cn1)C(=O)N[C@@H](CC1CCCCC1)[C@@H](O)CC(=O)NC1CN2CCC1CC2 (stereo partly drawn) [3-benzyl-2-(S)-(isopropylsulfonylmethyl)propionyl-L-histidyl-(3S,4S)-4-amino-5-cyclohexyl 3-hydroxypentanoyl 3-quinuclidinyl amide] | 11 | –
CC(C)CC(=O)N[C@H](C(=O)N[C@H](C(=O)N[C@@H](CC(C)C)[C@@H](O)CC(=O)N[C@@H](C)C(=O)N[C@@H](CC(C)C)[C@@H](O)CC(=O)O)C(C)C)C(C)C [pepstatin] (Isovaleryl-VV[Sta]A[Sta]-OH) | – | reduces blood pressure
